Laboratory results: PMC7614683, “A small molecule PI3Kα activator for cardioprotection and neuroregeneration” (Nature, 2023)

Legend:
Assay in all cases: SelectScreen LanthaScreen Binding
Settings in all cases: 1000 nM
DDR2 = target: T1, DDR2 (Homo sapiens, UniProt Q16832)
T1 sequence (Q16832 22-855): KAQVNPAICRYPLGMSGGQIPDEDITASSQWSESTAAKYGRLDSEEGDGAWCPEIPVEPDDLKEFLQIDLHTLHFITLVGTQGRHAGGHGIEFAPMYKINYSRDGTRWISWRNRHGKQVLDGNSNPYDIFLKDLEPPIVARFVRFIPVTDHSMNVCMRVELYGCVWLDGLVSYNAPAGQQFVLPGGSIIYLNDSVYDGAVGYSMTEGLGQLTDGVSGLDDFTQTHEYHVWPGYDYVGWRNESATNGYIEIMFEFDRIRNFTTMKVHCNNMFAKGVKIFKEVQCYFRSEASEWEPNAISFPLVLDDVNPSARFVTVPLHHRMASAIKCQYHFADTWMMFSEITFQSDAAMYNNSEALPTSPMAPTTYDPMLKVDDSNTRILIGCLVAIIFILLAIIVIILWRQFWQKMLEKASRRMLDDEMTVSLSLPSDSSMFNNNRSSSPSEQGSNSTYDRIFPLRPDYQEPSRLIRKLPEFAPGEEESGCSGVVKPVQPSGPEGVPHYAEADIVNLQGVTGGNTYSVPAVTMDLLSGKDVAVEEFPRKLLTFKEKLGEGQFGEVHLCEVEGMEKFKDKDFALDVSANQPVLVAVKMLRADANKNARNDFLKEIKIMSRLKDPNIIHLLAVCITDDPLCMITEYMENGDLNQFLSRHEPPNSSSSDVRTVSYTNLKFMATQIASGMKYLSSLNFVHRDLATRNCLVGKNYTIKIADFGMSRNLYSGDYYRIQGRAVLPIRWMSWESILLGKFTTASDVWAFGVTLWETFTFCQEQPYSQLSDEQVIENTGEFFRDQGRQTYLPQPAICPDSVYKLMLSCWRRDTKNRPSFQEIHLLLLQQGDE
How it was run: (§1)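 Single-point profiling, 1 μM 1938; LanthaScreen binding, Adapta or Z-LYTE read-outs; 133 protein + 7 lipid kinases.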

CDK8/cyclin C = CDK8/cyclin C (Homo sapiens, UniProt P49336)
How it was run: as §1

RET V804M = RET V804M (Homo sapiens, UniProt P07949, V804M)
How it was run: as §1

MKNK2 (MNK2) = MKNK2 (MNK2) (Homo sapiens, UniProt Q9HBH9)
How it was run: as §1

TGFBR1 (ALK5) = target: T2, TGFBR1 (ALK5) (Homo sapiens, UniProt P36897)
T2 sequence (P36897 34-503): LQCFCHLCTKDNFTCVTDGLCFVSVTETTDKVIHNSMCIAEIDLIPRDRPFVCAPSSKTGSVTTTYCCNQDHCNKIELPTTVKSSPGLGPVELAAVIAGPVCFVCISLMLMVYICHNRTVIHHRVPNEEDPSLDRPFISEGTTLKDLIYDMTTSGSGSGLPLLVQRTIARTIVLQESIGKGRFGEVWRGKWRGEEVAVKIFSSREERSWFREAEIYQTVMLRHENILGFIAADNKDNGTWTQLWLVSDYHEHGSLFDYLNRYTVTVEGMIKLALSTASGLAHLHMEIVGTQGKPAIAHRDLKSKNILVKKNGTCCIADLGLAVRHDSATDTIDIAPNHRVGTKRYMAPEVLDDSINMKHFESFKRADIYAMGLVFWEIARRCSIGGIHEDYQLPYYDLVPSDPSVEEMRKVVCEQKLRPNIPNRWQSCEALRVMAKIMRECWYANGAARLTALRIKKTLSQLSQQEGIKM
How it was run: as §1

CLK4 = CLK4 (Homo sapiens, UniProt Q9HAZ1)
How it was run: as §1

FGFR1 V561M = FGFR1 V561M (Homo sapiens, UniProt P11362, V561M)
How it was run: as §1

Chain of CLK4 (Q9HAZ1 whole entry): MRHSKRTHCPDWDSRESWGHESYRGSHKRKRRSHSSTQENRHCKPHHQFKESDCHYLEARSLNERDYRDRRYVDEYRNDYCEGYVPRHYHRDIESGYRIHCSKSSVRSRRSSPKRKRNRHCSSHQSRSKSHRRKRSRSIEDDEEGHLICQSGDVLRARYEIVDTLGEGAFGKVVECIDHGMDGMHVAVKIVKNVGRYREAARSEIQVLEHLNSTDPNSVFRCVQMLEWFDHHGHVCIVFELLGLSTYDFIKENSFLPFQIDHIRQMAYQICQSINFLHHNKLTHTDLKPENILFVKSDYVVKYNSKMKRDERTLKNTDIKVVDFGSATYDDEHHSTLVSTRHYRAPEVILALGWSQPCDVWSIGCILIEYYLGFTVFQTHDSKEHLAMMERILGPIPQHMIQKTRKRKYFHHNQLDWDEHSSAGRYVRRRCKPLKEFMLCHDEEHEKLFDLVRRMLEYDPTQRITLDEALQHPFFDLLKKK
Chain of MKNK2 (MNK2) (Q9HBH9 whole entry): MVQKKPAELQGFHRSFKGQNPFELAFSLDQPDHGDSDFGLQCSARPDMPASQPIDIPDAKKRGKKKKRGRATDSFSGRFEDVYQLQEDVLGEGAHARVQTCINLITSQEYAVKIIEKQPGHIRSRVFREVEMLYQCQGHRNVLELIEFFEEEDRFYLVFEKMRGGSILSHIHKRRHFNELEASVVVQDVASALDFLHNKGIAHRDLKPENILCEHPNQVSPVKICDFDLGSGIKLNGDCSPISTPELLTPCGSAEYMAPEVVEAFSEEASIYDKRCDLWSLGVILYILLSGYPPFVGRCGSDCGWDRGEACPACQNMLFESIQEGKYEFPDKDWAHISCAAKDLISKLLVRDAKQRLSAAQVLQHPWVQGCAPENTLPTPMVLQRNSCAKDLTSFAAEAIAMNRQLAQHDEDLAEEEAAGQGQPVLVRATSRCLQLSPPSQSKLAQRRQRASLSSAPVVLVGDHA
Chain of FGFR1 V561M (P11362 22-822 V561M): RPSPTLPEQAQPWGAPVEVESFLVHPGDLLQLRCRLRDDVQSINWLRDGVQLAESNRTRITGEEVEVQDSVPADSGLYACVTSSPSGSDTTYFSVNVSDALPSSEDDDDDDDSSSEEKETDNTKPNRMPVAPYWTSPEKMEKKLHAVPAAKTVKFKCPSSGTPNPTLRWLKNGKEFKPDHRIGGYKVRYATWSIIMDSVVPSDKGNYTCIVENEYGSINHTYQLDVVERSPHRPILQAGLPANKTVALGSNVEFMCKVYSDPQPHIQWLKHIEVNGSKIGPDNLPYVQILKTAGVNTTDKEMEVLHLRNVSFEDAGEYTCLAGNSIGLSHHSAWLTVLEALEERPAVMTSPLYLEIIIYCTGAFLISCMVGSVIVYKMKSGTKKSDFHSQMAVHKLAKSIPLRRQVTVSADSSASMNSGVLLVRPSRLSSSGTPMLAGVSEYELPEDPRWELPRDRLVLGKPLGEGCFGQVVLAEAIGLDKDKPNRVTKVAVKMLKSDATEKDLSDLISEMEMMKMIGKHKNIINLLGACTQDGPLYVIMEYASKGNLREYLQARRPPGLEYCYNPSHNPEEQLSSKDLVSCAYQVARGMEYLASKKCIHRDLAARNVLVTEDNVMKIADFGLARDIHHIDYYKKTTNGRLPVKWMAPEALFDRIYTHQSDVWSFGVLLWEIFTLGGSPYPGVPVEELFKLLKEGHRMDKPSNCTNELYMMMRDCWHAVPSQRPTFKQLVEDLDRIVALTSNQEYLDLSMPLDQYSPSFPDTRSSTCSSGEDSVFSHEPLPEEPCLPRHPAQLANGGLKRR
Chain of RET V804M (P07949 29-1114 V804M): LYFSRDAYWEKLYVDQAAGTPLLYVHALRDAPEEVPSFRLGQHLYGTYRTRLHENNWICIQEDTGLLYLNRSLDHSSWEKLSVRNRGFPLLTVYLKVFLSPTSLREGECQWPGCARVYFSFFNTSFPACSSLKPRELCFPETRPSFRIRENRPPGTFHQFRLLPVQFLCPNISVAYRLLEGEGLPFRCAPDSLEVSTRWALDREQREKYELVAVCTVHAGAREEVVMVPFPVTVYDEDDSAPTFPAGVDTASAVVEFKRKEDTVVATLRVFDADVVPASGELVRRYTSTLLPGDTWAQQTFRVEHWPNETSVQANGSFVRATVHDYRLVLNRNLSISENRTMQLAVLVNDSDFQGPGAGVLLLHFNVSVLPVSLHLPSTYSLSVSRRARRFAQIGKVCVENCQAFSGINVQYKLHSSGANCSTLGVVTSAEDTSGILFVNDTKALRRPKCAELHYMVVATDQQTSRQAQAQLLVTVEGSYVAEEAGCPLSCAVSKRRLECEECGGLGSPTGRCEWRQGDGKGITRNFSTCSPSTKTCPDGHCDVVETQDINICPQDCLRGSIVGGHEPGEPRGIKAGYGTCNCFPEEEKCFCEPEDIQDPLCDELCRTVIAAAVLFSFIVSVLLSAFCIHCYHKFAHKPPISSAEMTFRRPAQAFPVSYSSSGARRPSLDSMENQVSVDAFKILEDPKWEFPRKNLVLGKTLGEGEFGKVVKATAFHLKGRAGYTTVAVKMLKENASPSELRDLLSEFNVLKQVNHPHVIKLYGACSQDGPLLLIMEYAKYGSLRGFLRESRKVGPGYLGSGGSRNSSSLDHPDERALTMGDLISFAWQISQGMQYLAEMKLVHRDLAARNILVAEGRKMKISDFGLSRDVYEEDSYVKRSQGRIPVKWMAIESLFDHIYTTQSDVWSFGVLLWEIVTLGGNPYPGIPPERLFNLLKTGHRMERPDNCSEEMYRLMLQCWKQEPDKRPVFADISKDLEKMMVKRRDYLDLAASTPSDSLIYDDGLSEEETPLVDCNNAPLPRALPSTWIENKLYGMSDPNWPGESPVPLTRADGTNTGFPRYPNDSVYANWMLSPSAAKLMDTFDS
Chain of CDK8/cyclin C (P49336 whole entry): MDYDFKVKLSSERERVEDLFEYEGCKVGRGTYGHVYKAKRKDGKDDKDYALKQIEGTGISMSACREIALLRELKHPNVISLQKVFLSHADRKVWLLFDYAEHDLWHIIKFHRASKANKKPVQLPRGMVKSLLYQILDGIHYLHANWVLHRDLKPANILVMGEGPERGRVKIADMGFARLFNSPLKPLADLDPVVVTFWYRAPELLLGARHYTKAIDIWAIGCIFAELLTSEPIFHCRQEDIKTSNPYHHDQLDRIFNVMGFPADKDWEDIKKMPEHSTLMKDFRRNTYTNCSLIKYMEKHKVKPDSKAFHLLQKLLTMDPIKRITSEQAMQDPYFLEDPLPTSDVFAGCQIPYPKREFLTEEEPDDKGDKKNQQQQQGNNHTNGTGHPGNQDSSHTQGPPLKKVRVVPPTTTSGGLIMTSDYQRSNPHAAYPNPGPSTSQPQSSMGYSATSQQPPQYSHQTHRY
Chain of CDK8/cyclin C (P24863 whole entry partner): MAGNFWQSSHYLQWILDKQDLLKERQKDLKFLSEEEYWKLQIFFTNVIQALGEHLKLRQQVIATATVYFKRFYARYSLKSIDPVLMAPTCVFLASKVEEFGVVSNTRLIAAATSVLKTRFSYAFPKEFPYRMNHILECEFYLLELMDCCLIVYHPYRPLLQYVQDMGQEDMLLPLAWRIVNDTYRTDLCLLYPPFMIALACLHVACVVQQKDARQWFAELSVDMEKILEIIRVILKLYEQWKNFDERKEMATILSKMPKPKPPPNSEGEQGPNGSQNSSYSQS

CCN1CCN(c2ccc(Nc3cc(Nc4cccc5c4N(C(C)=O)CC5)ccn3)cc2)CC1 [Compound 1938]
% Displacement Point 1 (DDR2): -6.46% | % Displacement Point 2 (DDR2): 0.345% | % Displacement mean (DDR2): -3% | % Displacement Point 1 (CDK8/cyclin C): -0.599% | % Displacement Point 2 (CDK8/cyclin C): 0.85% | % Displacement mean (CDK8/cyclin C): 0.126% | % Displacement Point 1 (RET V804M): 1.24% | % Displacement Point 2 (RET V804M): -3% | % Displacement mean (RET V804M): -0.94% | % Displacement Point 1 (MKNK2 (MNK2)): 20% | % Displacement Point 2 (MKNK2 (MNK2)): 17% | % Displacement mean (MKNK2 (MNK2)): 18% | % Displacement Point 1 (TGFBR1 (ALK5)): 19% | % Displacement Point 2 (TGFBR1 (ALK5)): 22% | % Displacement mean (TGFBR1 (ALK5)): 21% | % Displacement Point 1 (CLK4): 1.72% | % Displacement Point 2 (CLK4): 6.61% | % Displacement mean (CLK4): 4% | % Displacement Point 1 (FGFR1 V561M): 8% | % Displacement Point 2 (FGFR1 V561M): 8.43% | % Displacement mean (FGFR1 V561M): 8%
